Reference: US11395857B2, “Radiolabeled melanocortin 1 receptor-specific alpha-melanocyte-stimulating hormone analogues for imaging or therapy” (PROVINCIAL HEALTH SERVICES AUTHORITY, priority 2018, dated 2022)

Key:
[1] = In vivo stability in mouse urine at 1 h p.i. (radio-HPLC); design: species or system C57BL/6J mice
Method: All animal experiments were conducted in according to the guidelines established by Canadian Council on Animal Care and approved by Animal Ethics Committee of the University of British Columbia. Mice were housed under pathogen-free conditions and kept on twelve hours light and twelve hours dark cycle in the Animal Research Centre, BC Cancer Research Centre, Vancouver, Canada. C57BL/6J mice were anesthetized by inhalation with 2% isoflurane in 2.0 L/min of oxygen, and approximately 4-6 MBq of [^68Ga]Ga-CCZ01099 or [^68Ga]Ga-CCZ01048 was injected intravenously. The mice were allowed to recover and roam freely in their cages. At 1 h post-injection (p.i.), the mice were euthanized by CO2 inhalation and their urine was collected and analyzed on HPLC for metabolite using the conditions described above. In vivo urine stability of [^68Ga]Ga-CCZ01099 and [^68Ga]Ga-CCZ01048 were 34.0±10.4% and ≥98.0% (n≥3), respectively.
The in vivo stability tests in mouse urine were performed as described in Example 1. […] With systematic reduction in the number of N-methylations for the αMSH analogues, a decrease in in vivo stability was observed.

B16-F10 tumours = assay: PET/CT imaging of B16-F10 tumour-bearing mice; format: in vivo, C57BL/6J mice
Method: PET imaging experiments were conducted using a preclinical micro PET/CT scanner (Siemens inveon). For static PET scan, each tumour bearing mouse was injected with 4-6 MBq of ^68Ga-labeled CCZ01099 via tail vein under anesthesia. After the injection, mice were allowed to recover and roam freely in their cages. At 1 or 2 h p.i., the mice were sedated again with 2% isoflurane inhalation and positioned in the scanner, and kept warm by a heating pad. A 10 min baseline CT scan using 60 kV X-rays at 500 μA was obtained for localization and attenuation correction after segmentation for reconstructing the PET images. A single 12 min static PET scan was acquired following the CT scan. The mice were euthanized using CO2 inhalation after imaging.

In vivo urine stability, intact tracer [1]: 34.0±10.4% | Tumour visualization on PET images (B16-F10 tumours; 1 h and 2 h p.i.): Tumours were clearly visualized | Tumour uptake on PET with co-injection of MC1R-specific inhibitor BMS 470539 (B16-F10 tumours; 1 h p.i., 0.5 mg BMS 470539): tumour uptake was abolished
Structure (SMILES): CCCC[C@H](NC(=O)CN1CCC(NC(=O)CN2CCN(CC(=O)O)CCN(CC(=O)O)CCN(CC(=O)O)CC2)CC1)C(=O)N[C@H]1CC(=O)NCCCC[C@@H](C(N)=O)N(C)C(=O)[C@H](Cc2c[nH]c3ccccc23)N(C)C(=O)[C@H](CCCNC(=N)N)N(C)C(=O)[C@@H](Cc2ccccc2)NC(=O)[C@H](Cc2c[nH]cn2)N(C)C1=O [^68Ga-labeled CCZ01099, metal not drawn]
